“Also recorded” adds a separate entry of the source.
Tests used:
[1] = Pharmacokinetics in CYP2D6 poor metabolizers vs extensive metabolizers
From the text: Approximately 7 to 10% of Caucasians and 3 to 8% of African Americans lack the capacity to metabolize CYP2D6 substrates and are classified as poor metabolizers.
(§1) Data are GMRs and 90% CIs. Reference used are the matched healthy subjects for renal and hepatic impairment studies, and extensive or ultra-extensive CYP2D6 metabolizers.

plasma protein = assay: Plasma protein binding
[2] = Pharmacokinetics after administration of the subject combination (steady state); settings: human, in vivo; for half-life: mean elimination half-life
[3] = Co-administration of paroxetine (strong CYP2D6 inhibitor) and the subject combination
From the text: Co-administration of the SSRI paroxetine and the subject combination was studied in 29 healthy volunteers.

[4] = Food effect on pharmacokinetics of the subject combination; type: in vivo, human; settings: subject combination administered with food
[5] = Pharmacokinetics in subjects with moderate renal impairment vs matched controls
From the text: as §1

[6] = 3 poor metabolizers compared to extensive metabolizers
[7] = 20 mg paroxetine concomitantly with tablet twice daily vs tablet twice daily without paroxetine
[8] = 7 subjects with moderate renal impairment (GFR 30-60 mL/min) vs 6 matched controls with normal renal function
[9] = patients having moderate renal impairment

SMILES: COc1ccc2c(c1)[C@]13CCCC[C@@H]1[C@H](C2)N(C)CC3 [dextromethorphan]
- increase in AUC0-12 [1, 6]: ~3.4 fold
- increase in Cmax [1, 6]: ~3 fold
- plasma concentrations in CYP2D6 poor metabolizers compared with non-poor metabolizers ([1]; steady state, subject combination): increases; also recorded: generally higher
- fraction unbound (plasma protein): 0.3 to 0.4
- Tmax [2]: ~3 h
- half-life ([2]; following 8 days of administration of the subject combination in extensive metabolizers): ~22 h
- half-life ([2]; subject combination): 22 h
- increase in AUC0-2 [3, 7]: 2.69 fold
- increase in Cmax [3, 7]: 2.38 fold
- change of overall exposure by paroxetine ([3]; 29 healthy volunteers, paroxetine co-administered with the subject combination): 2.5 fold
- plasma concentrations with concomitant strong CYP2D6 inhibitor ([3]; concomitant use of the subject combination with a strong CYP2D6 inhibitor): increases
- AUC0-2 decrease with food [4]: 14%
- Cmax change with food [4]: unchanged
- increase of exposure [5, 8]: approximately 2 fold
- reduction of clearance [5, 8]: 50%
- concentrations compared with patients with healthy renal function [5, 9]: higher
- increase in AUC0-2 [5, 9]: 2.21 fold

SMILES: CC(NC(C)(C)C)C(=O)c1cccc(Cl)c1 (racemic) [bupropion]
- concentrations compared with patients with healthy renal function ([5]; human, in vivo): higher
- increase in AUC0-2 ([5]; human, in vivo): 1.80 fold
- increase of exposure ([5]; human, in vivo): approximately 2 fold
- reduction of clearance ([5]; human, in vivo): 50%

Reference: patent US11839612B1, “Compounds and combinations thereof for treating neurological and psychiatric conditions” (priority 2022, dated 2023)
